From patent US20250318997A1, “COMPOSITIONS AND METHODS FOR PREVENTING DENTAL CARIES” (THE TRUSTEES OF THE UNIVERSITY OF PENNSYLVANIA, priority 2022, published 2025)

Assays:
[1] = TMB colorimetric assay for peroxidase-like (catalytic) activity / ROS; settings: for effect of the salt on the catalytic activity of Fer: salt 20 (or 30) μg/ml, Fer 20 μg of Fe/ml, pH 4.5, FIGS. 4A-4C
Source text: To explore whether SnF2 could produce ROS, the 3,3′,5,5′-tetramethylbenzidine (TMB) colorimetric assay was used for peroxidase-like activity following a previously published protocol, with some modifications. TMB is a chromogenic compound that yields a blue color upon oxidation with an absorption peak at 652 nm in the presence of H2O2.
ROS measurement using 3,3′,5,5′-tetramethylbenzidine (TMB) assay: The catalytic activity of Fer+SnF2 was investigated by a colorimetric assay using TMB (Sigma-Aldrich) as a probe, which generates a blue color in the presence of H2O2 after reacting with ROS. Briefly, the stock solution of TMB was made in DMF (25 mg/ml). Fer (0.5 mg of Fe/ml) and SnF2 (0.5 mg/ml, Sigma-Aldrich) were incubated (separately or combined) at room temperature in 0.1 M of sodium acetate buffer (pH 4.5) for 1 h. Afterward, 40 μl of the testing sample (Fer, SnF2, or Fer+SnF2) and 4 μl of TMB (100 μg) were added into 922 μl of 0.1 M sodium acetate buffer (pH 4.5), and absorbance was recorded at 652 nm. Then, 34 μl of H2O2 (1%, v/v) was added. After 10 min additional incubation in the dark, catalytic activities was monitored at 652 nm. For the control, 40 μl of the buffer solution was taken instead of the testing sample. To examine the effect of DMSO, a quencher of hydroxyl radical (·OH), various amounts of DMSO (0-10%) were used. The effect of pH on the catalytic activity of the combined treatment of Fer+SnF2 was determined at three different pH values (4.5, 5.5, and 6.5), as described above. The comparison of the catalytic activity of Fer+NaF and Fer+SnF2 was also conducted using the same protocol as described above, except after adding H2O2, the reaction mixture was incubated only for 5 min.
Subsequently, 40 μl of the combined mixture of Fer (20 μg of Fe) and BaF2 (20 or 30 μg) and 4 μl of TMB (100 μg) were mixed into 922 μl of 0.1 M sodium acetate buffer (pH 4.5). Afterward, H2O2 (1%) was added. Finally, the absorbance of TMB was monitored at 652 nm after 5 min of incubation. In a similar way, the catalytic activity of SnCl2 (final concentration 20 μg/ml, Sigma-Aldrich) was also investigated. The effect of incubation time on the catalytic activity was investigated after incubating Fer and SnF2 for a predetermined time.
Additionally, the catalytic activity of the released iron and nanoparticle pellet was investigated at pH 4.5 via TMB assay.

[2] = system: S. mutans biofilm; assay: In vitro biofilm model on saliva-coated hydroxyapatite disc: viable cells (CFU) and biomass (dry weight); format: cell-based, Streptococcus mutans UA159
Protocol: Antibiofilm activity was evaluated using different concentrations of Fer and SnF2 in the presence of H2O2 using the saliva-coated hydroxyapatite disc (tooth enamel mimic) model in the presence of sucrose. Initially, Fer (1 mg of Fe/ml) was mixed with various concentrations of SnF2 (0-250 ppm of F), and the number of viable cells and biomass were determined.
Biofilms were formed using the saliva-coated hydroxyapatite disc (sHA) model as described elsewhere. Streptococcus mutans UA159, a proven virulent and well-characterized cariogenic pathogen, were grown in ultra-filtered (10 kDa, cutoff; Millipore, Billerica, MA) tryptone-yeast extract (UFTYE) broth at 37° C. and 5% CO2 to mid-exponential phase. Briefly, HA discs (surface area of 2.7±0.2 cm^2; Clarkson Chromatography Inc., South Williamsport, PA) were vertically suspended in 24-well plates using a custom-made wire disc holder and coated with filter-sterilized human saliva for 1 h at 37° C. Each sHA disc was inoculated with ˜2×10^5 CFU of S. mutans per ml in UFTYE containing 1% sucrose at 37° C. and 5% CO2. Topical treatment of Fer and SnF2 or vehicle control was performed twice daily for 10 min at 0, 6, 19, and 29 h. The culture medium was changed twice daily (at 19 h and 29 h). At the end of the experimental period (43 h), the biofilms were placed in 2.8 ml of H2O2 (1%, v/v) for 5 min. After H2O2 exposure, the biofilms were removed and homogenized via bath sonication followed by probe sonication (at an output of 7 W for 30 s). The homogenized suspension was serially diluted and plated onto blood agar plates using an automated EddyJet Spiral Plater (IUL, SA, Barcelona, Spain). The numbers of viable cells in each biofilm were calculated by counting CFU. The remaining suspension was centrifuged at 5500 g for 10 min, the resulting cell pellets were then washed, oven-dried, and weighed. SnF2 and NaF treatment groups were performed according to the same procedure.

[3] = Hydroxyl radical production by PL using coumarin; settings: pH 4.5, H2O2; FIGS. 3F, 15
Protocol: Comparison of hydroxyl radical (·OH) production: ·OH generated by Fer and Fer+SnF2 in 0.1 M sodium acetate buffer (pH 4.5) was compared by PL technique using coumarin (Sigma-Aldrich) as a ·OH trapping molecule. First, stock solution of Fer (0.5 mg of Fe/ml) with or without SnF2 (0.5 mg/ml) was incubated in 0.1 M sodium acetate buffer (pH 4.5) for 1 h. Afterward, Fer (20 μg of Fe/ml) with or without SnF2 (20 μg/ml) was mixed with coumarin (0.1 mM) in a 10 mm path length cuvette, and then H2O2 (1%, v/v) was added to the reaction mixture to initiate the reaction. The PL intensity was recorded at 452 nm at different incubation times with an excitation wavelength of 332 nm. For the control, all the experimental conditions were the same, except that the testing samples were not used.

[4] = Stability of SnF2 in aqueous solution / sodium acetate buffer (photographs, UV-vis); settings: SnF2 alone, 0.1 M sodium acetate buffer pH 5.5; FIG. 2B
Source text: It is noteworthy that SnF2 has limited stability in aqueous solutions owing to its high susceptibility to hydrolysis and oxidation, requiring chemical additives (e.g., chelating agents) or water removal, which can reduce fluoride bioavailability. […] To further investigate the stability of SnF2 in the presence of Fer, SnF2 (250 ppm of F) was mixed with increasing amounts of Fer in 0.1 M sodium acetate buffer at different pH values.
The peak at 4.0-4.2 ppm (denoted as “a”) is attributed to the protons of the carboxymethyl moieties, as determined previously. […] Note that similar ^1H NMR studies of SnF2 and Fer are not possible due to the superparamagnetic nature of Fer interfering with ^1H NMR measurements.
The Fer formulation also contains mannitol, which is an antioxidant. Since antioxidants can prevent the oxidation of SnF2, SnF2 was added to various amounts of mannitol (1-10 mg/ml).

[5] = Stability of Fer/SnF2 with citric acid after 1 month at room temperature (photographs, hydrodynamic diameter); format: physicochemical
Protocol: FIG. 21 provides photographs of Fer+SnF2 when mixed with various amounts of citric acid after 1 month incubation at room temperature.

With `[Ba+2].[F-].[F-]` [BaF2, barium fluoride] as the molecule, how does the “effect of the salt on the catalytic activity of Fer” value (“effect of the salt” below) [1] read?
The value was “Neither NaF nor BaF2 increased the catalytic activity of Fer”.

With `[F-].[Na+]` [NaF, sodium fluoride] as the molecule, how does the “effect of the salt” value [1] read?
The value was “Neither NaF nor BaF2 increased the catalytic activity of Fer”.

For `[Cl][Sn][Cl]` [SnCl2], which “effect of the salt” value [1] is on record?
Its value is “enhanced the catalytic activity of Fer”.

Which results are given for `[F][Sn][F]` [SnF2, stannous fluoride]?
ROS production / catalytic activity (TMB absorption at 652 nm) ([1]; pH 4.5, H2O2, FIGS. 3A, 3B): did not produce a noticeable amount of ROS; effect of post-mixed SnF2 on the catalytic activity of Fer ([1]; post-mixed, not pre-mixed and incubated, FIG. 20): reduced the catalytic activity of Fer; growth of S. mutans (bacterial viability) ([2]; 1000 ppm of F, compared with NaF, FIG. 9A): significantly inhibit the growth of S. mutans; biomass ([2]; 1000 ppm of F, compared with NaF, FIG. 9B): reduce biomass; biomass ([2]; SnF2 250 ppm of F alone, FIG. 1D): substantially reduce biomass; ·OH production (PL intensity of 7-hydroxycoumarin at 452 nm) [3]: did not produce a noticeable amount of ·OH; appearance of SnF2 solution [4]: Immediate aggregation

Which “amount of citric acid that improves the stability of the Fer/SnF2 formulation” value [5] does the source give for `O=C(O)CC(O)(CC(=O)O)C(=O)O` [citric acid] here?
Its value is at least 125 µg/mL.
